Laboratory results: US7022719B2, “Preventing and reversing the formation of advance glycosylation endproducts” (Alteon, Inc., priority 1995, dated 2006)
pIC50: −log10 of the molar value. Like-named read-outs stand apart in the source and are kept apart here. One block for each compound: values may come before it.

Tests used:
[1] = test system: AGE-BSA crosslinked to collagen; assay: Cross-link Breaking Assay (sandwich enzyme immunoassay); assay type: biochemical
Method: The present invention also involves a novel sandwich enzyme immunoassay used to ascertain the ability of test compounds to “break” or reverse already formed advanced glycosylation endproducts by detecting the breaking of AGE (Advanced glycosylation endproduct) moieties from AGE-crosslinked protein. This assay comprises: • a) incubation of AGE-modified bovine serum albumin (AGE BSA) on collagen-coated wells of microtiter plates for a period of 2–6 hours' at a temperature of 37° C.; • b) washing of the wells with PBS-Tween; • c) application of the test compounds to the washed wells of step b; • d) incubation of the test compounds applied to the washed wells for an additional 12–24 hours at a temperature of about 37° C.; and • e) detection of the AGE-breaking using an antibody raised against AGE-ribonuclease or cross-link breaking with an antibody against BSA.
In order to ascertain the ability of the compounds of the instant invention to “break” or reverse already formed advanced glycosylation endproducts, a novel sandwich enzyme immunoassay was developed which detects breaking of AGE (Advanced glycosylation endproduct) moieties from AGE-crosslinked protein. The assay utilizes collagen-coated 96 well microtiter plates that are obtained commercially. […] Following an incubation period of 16 hours (37° C.) cross-link-breaking is detected using an antibody raised against AGE-ribonuclease or with an antibody against BSA. […] Details of the assay are as follows:
Methods Preparation of Solutions and Buffers • 1. AGE-BSA stock solutions were prepared as follows. Sodium phosphate buffer (0.4 M) was prepared by dissolving 6 grams of monobasic sodium phosphate in 100 ml of distilled water, 7 grams of dibasic sodium phosphate (0.4 M) in 100 ml of distilled water and adjusting the pH of the dibasic solution to 7.4 with the monobasic solution. Sodium azide (0.02 grams) was added per 100 ml volume to inhibit bacterial growth. The BSA solution was prepared as follows: 400 mg of Type V BSA (bovine serum albumin) was added for each ml of sodium phosphate buffer (above). A 400 mM glucose solution was prepared by dissolving 7.2 grams of dextrose in 100 ml of sodium phosphate buffer (above). The BSA and glucose solutions were mixed 1:1 and incubated at 37° C. for 12 weeks. The pH of the incubation mixture was monitored weekly and adjusted to pH 7.4 if necessary. After 12 weeks, the AGE-BSA solution was dialyzed against PBS for 48 hours with four buffer changes, each at a 1:500 ratio of solution to dialysis buffer. Protein concentration was determined by the micro-Lowry method. The AGE-BSA stock solution was aliquoted and stored at −20° C. […] Working solutions for crosslinking and breaking studies were prepared as follows. Test compounds were dissolved in PBS and the pH was adjusted to pH 7.4 if necessary. AGE-BSA stock solution was diluted in PBS to measure maximum crosslinking and in the inhibitor solution for testing inhibitory activity of compounds. The concentration of AGE-BSA necessary to achieve the optimum sensitivity was determined by initial titration of each lot of AGE-BSA. • 3. Wash buffer (“PBS-Tween”) was, prepared as follows. PBS was prepared by dissolving the following salts in one liter of distilled water: NaCl, 8 grams; KC1, 0.2 gram, KH2PO4. […] Tween-20 was added to a final concentration of 0.05% (vol/vol). • 4. Substrates for detection of secondary antibody binding were prepared by diluting the HRP substrate buffer 1:10 in distilled water and mixing with ABTS chromogen 1:50 just prior to use. Assay Procedures • 1. Biocoat plates were blocked with 300 μl of “Superbloc”. Plates were blocked for one hour at room temperature and were washed with PBS-Tween three times with the Dynatech platewasher before addition of test reagents. • 2. Each experiment was set up in the following manner. The first three wells of the Biocoat plate were used for the reagent blank.

[2] = test system: cross-linking of glycated bovine serum albumin (AGE-BSA) to rat tail tendon collagen; assay: Cross-linking Inhibition Assay; details: for pIC50: inhibition of AGE-BSA cross-linking to collagen-coated plate
Method: The following method was used to evaluate the ability of the compounds of the present invention to inhibit the cross-linking of glycated bovine serum albumin (AGE-BSA) to the rat tail tendon collagen-coated 96-well plate.
The blocking solution was removed from the wells by, washing the plate twice with PBS-'Tween 20 solution (0.05% Tween 20) using a NUNq-multiprobe or Dynatech ELISA-plate washer. Cross-linking of AGE-BSA (1 to 10 mg per well depending on the batch of AGE-BSA) to rat tail tendon collagen coated plate was performed with and without the testing ‘compound dissolved in PBS buffer at pH 7.4 at the desired concentrations by the, addition of 50 μl each of the AGE-BSA diluted in PBS or in the solution of test compound at 37° C. for 4 hours. Unbrowned BSA in PBS buffer with or without testing compound were added to the separate wells as the blanks. The un-cross-linked AGE-BSA was then removed by washing the wells three times with PBS-Tween buffer. The amount of AGE-BSA cross-linked to the tail tendon collagen-coated plate was then quantitated using a polyclonal antibody raised against AGE-RNase. After a one-hour incubation period, AGE antibody was removed by washing 4 times with PBS-Tween.
The bound AGE antibody was then detected with the addition of horseradish peroxidase-conjugated secondary antibody—goat anti-rabbit immunoglobulin and incubation for 30 minutes. […] The reaction was allowed for an additional 15 minutes and the absorbance was read at 410 nm in a Dynatech plate reader.

[3] = detection with anti-AGE antibody, read-out: IC50 (mM) Anti-AGE
[4] = detection with anti-BSA antibody, read-out: IC50 (mM) Anti-BSA

Compound: Nc1ccc2c(c1)sc(N)[n+]2CC(=O)c1ccc(Br)cc1.[Br-] [2,6-diamino-3 (2-(4′-bromophenyl)-2-oxoethyl] benzothiazolium bromide]
Breaking Anti-AGE ([1]; anti-AGE antibody, at 10 mM): 27%
Breaking Anti-BSA ([1]; anti-BSA antibody, at 10 mM): 44%

Compound: Cc1cc(C)c(S(=O)(=O)[O-])c(C)c1.Nc1sc(-c2ccc3c(c2)OCCCO3)c[n+]1N [2,3-Diamino-5-(3′,4′-trimethylenedioxyphenyl) thiazolium mesitylene sulfonate]
Breaking Anti-AGE ([1]; anti-AGE antibody, at 1 mM): 13%
Breaking Anti-BSA ([1]; anti-BSA antibody, at 1 mM): 42%

pIC50 [2]: 2.53
Compound: Cc1c(CCO)sc[n+]1CC(=O)c1ccc(Br)cc1 [3-(2-(41-bromophenyl]-2-oxoethyl)-4-methyl-5-(2-hydroxyethyl)thiazolium bromide]

Breaking Anti-AGE [1]: 22%/44% (10)
Breaking Anti-BSA [1]: 22%/44% (10)
Compound: 3-(2-(3′-methoxyphenyl]-2-oxoethyl)-thiazolium bromide

Compound: Nc1ccc2c(c1)sc(N)[n+]2CC(=O)c1ccc(F)cc1.[Br-] [2,6-diamino-3 (2-(4′-fluorophenyl-2-oxoethyl]benzothiazolium bromide]
Breaking Anti-AGE ([1]; anti-AGE antibody, at 10 mM): 24%
Breaking Anti-BSA ([1]; anti-BSA antibody, at 10 mM): 40%

pIC50 [2]: 3.80
Compound: Cc1sc[n+](CC(=O)c2cc(C(C)(C)C)c(O)c(C(C)(C)C)c2)c1C [3-(2-(3′,5′-di-tert-butyl-4′-hydroxypheny].)-2-oxoethyl]-4,5-dimethyl-thiazolium bromide]

pIC50 [2]: 4.54
Compound: Cc1c[n+](CC(N)=O)cs1 [3-(2-amino-2-oxoethyl)-5-methyl-thiazolium bromide]

Compound: CCCCCc1ccc(C(=O)C[n+]2csc(CCO)c2C)cc1.[Br-] [3-(2-(4′-n-pentylphenyl)-2-oxoethyl]-4-methyl-5-(2′-hydroxyethyl)-thiazolinium]
Relative Cross-link Inhibition ([2]; 3 mM): 52% @ 3 mM
pIC50 [2]: 2.82

Compound: COC(=O)C[n+]1cscc1C.[Br-] [3-(2-methoxy-2-oxoethyl)-4-methylthiazolium bromide]
Breaking Anti-AGE ([1]; anti-AGE antibody, at 30 mM): 54%
Breaking Anti-BSA ([1]; anti-BSA antibody, at 30 mM): 51%

Breaking Anti-AGE ([1]; anti-AGE antibody, concentration not given): 56%
Breaking Anti-BSA ([1]; anti-BSA antibody, concentration not given): 93%
IC50 [1, 3]: 0.83 mM
IC50 [1, 4]: 0.75 mM
Compound: CC(=O)C[n+]1ccsc1.[Cl-] [3-(2-methyl-2-oxoethyl) thiazolium chloride]

Compound: COc1ccc(C(=O)C[n+]2c(N)sc3cc(N)ccc32)cc1.[Br-] [2,6-diamino-3 (2-(4′-methoxyphenyl)-2-oxoethyl]benzothiazolium bromide]
Breaking Anti-AGE ([1]; anti-AGE antibody, at 10 mM): 29%
Breaking Anti-BSA ([1]; anti-BSA antibody, at 10 mM): 35%

Compound: O=C(O)C[n+]1csc2ccccc21.[Br-] [3-(carboxymethyl)benzothiazolium bromide, 3-(carboxymethyl)-benzothiazolium bromide]
Breaking Anti-AGE ([1]; anti-AGE antibody, at 30 mM): 63.7%
Breaking Anti-BSA ([1]; anti-BSA antibody, at 30 mM): 17.9%

Compound: O=C(C[n+]1ccsc1)c1ccc2c(c1)OCCCO2.[Br-] [3-(2-(3′,4′-trimethylenedioxyphenyl)-2-oxoethyl]-thiazolium bromide]
Breaking Anti-AGE ([1]; anti-AGE antibody, at 10 mM): 17%
Breaking Anti-BSA ([1]; anti-BSA antibody, at 10 mM): 18%

Compound: Cc1csc[n+]1CC(=O)c1cc(C(C)(C)C)c(O)c(C(C)(C)C)c1.[Br-] [3-[2-(3′,5′-di-tert-butyl-4′-hydroxyphenyl)-2-oxoethyl]-4-methyl-thiazolium bromide]
Breaking Anti-AGE ([1]; anti-AGE antibody, at 0.3 mM): 14%
Breaking Anti-BSA ([1]; anti-BSA antibody, at 0.3 mM): 2%

Compound: O=C(C[n+]1ccsc1)c1ccc(Br)cc1.[Br-] [3-(2-(4^1-bromophenyl]-2-oxoethyl)-thiazolium bromide]
Breaking Anti-AGE ([1]; anti-AGE antibody, at 30 mM): 76%
Breaking Anti-BSA ([1]; anti-BSA antibody, at 30 mM): 25%

Breaking Anti-AGE ([1]; anti-AGE antibody, at 0.3 mM): 32%
Breaking Anti-BSA ([1]; anti-BSA antibody, at 0.3 mM): 50%
Compound: C=Cc1sc[n+](CC(=O)c2cc(C(C)(C)C)c(O)c(C(C)(C)C)c2)c1C [3-(2-(3′,5′-tert-butyl-4′-hydroxyphenyl)-2-oxoethyl)-4-methyl-5-vinyl-thiazolium bromide]

Breaking Anti-AGE ([1]; anti-AGE antibody, at 10 mM): 6%
Breaking Anti-BSA ([1]; anti-BSA antibody, at 10 mM): 27%
Compound: Cc1c(CCO)sc[n+]1Cc1c(Cl)cccc1Cl.[Cl-] [3-(2′,6′-dichlorobenzyl)-4-methyl-5-(2′-15 hydroxyethyl)-thiazolium chloride]

Breaking Anti-AGE ([1]; anti-AGE antibody, at 30 mM): 65%
Breaking Anti-BSA ([1]; anti-BSA antibody, at 30 mM): 61%
IC50 [1, 3]: 0.42 mM
IC50 [1, 4]: 0.55 mM
Compound: Cc1c(CCO)sc[n+]1Cc1ccccc1.[Cl-] [3-benzyl-5-(2-hydroxyethyl)-4-methyl thiazolium chloride]
